Reference: paper PMC7139549, “TLD1433 Photosensitizer Inhibits Conjunctival Melanoma Cells in Zebrafish Ectopic and Orthotopic Tumour Models” (Cancers, 2020)
Read-outs that look alike come from different tables or passages of the source.

Tested on: CRMM2 conjunctival melanoma cell line
Assay: SRB cell viability assay, CRMM2
Type: cell-based, Human
Experimental: TLD1433 is known to generate reactive oxygen species (ROS) with high quantum efficacy in many cancer cell lines. However, there is no report of the in vitro toxicity of this compound in eye melanoma (UM) cell lines. We determined the cell viability of three conjunctival melanoma cell lines (CRMM1, CRMM2 and CM2005.1), and three uveal melanoma cell lines (OMM1, OMM2.5, MEL270) in the presence of TLD1433, both in the dark or under green light irradiation (21 mW/cm^2, 19 J/cm^2, 520 nm, 15 min), and compared this viability to epidermoid carcinoma A431 and cutaneous melanoma A375 cell lines under the same conditions. The protocol used was based on previous work from the Bonnet group, and differed slightly from recommendations from McFarland et al.. […] The effective concentration (EC50) values, i.e., the concentration required to reduce cell viability by 50% compared to untreated wells, were assessed by fitting the dose-response curves with a Hill equation. The phototoxicity index (PI), defined as the ratio of the dark EC50 to the light EC50, was also calculated and represents the amplification of TLD1433 activity with a light trigger. […]
Figure 2 Cell viability after TLD1433 treatment of eight tumour cell lines (CRMM1, CRMM2, CM2005.1, OMM1, OMM2.5, MEL270, A431, A375). […] The absorbance of Sulforhodamine B in solution was measured at 520 nm. […]
At day 0, cells were detached using 1mL of trypsin, resuspended in 4 mL of media and transferred to a 15 mL corning falcon tube. Cells were counted using trypan blue and BioRad® TC20™ automated cell counter (Figure 11). Dilutions of 6000 (CRMM1), 6000 (CRMM2), 8000 (CM2005.1), 6000 (OMM1), 6000 (OMM2.5), 6000 (MEL270) 8000 (A431), and 4000 (A375) cells/well were calculated from each cell suspension at a final volume of 6 mL using the following formula: Vc=(Vt×10C)/Lc where Vt = total volume of solution, C = number of cells per well/per 100 μL and Lc = live cells count (cells/mL). […] Next day, the dye was dissolved using Tri-base (0.25%) and absorbance of SRB at 510 nm was recorded from each well using a Tecan plate reader. […]

In the case of `Cc1ccnc(-c2cc(C)ccn2)c1.Cc1ccnc(-c2cc(C)ccn2)c1.[Cl-].[Cl-].[Ru+2].c1csc(-c2ccc(-c3ccc(-c4nc5c6cccnc6c6ncccc6c5[nH]4)s3)s2)c1` [TLD1433], the EC50 (CRMM2, dark, 24 h treatment, SRB, read-out: EC50, dark) is reported as 1 µM, the EC50 (CRMM2, green light 520 nm, 15 min, 21 mW/cm^2, 19 J.cm^−2, DLI 24 h, read-out: EC50,light) is reported as 0.0048 µM and the “PI (photo index)” value (CRMM2, ratio of dark and light EC50, 19 J.cm^−2 green light) is reported as 210.
